Laboratory results taken from patent publication US12600696B2 (XENIOPRO GMBH, priority 2017, dated 2026).

Columns and labels:
[1] = tested on: HL-60 cells (human acute myeloid leukemia cells); test: alamarBlue proliferation assay with HL-60 cells; format: cell-based; details: 120 h, 5 days, relative to DMSO baseline level of 1.0, read-out: AVEw, weighted arithmetic mean of normalized fluorescence intensity values (Activity Range), HL-60 proliferation
Protocol: The antiproliferative activities of compounds falling under formula I, formula II, formula III, formula IV and formula V were investigated on cells or cell lines originating from a disorder of the myeloid cell compartment, the neuroendocrine system, the cervix, and the mucosal epithelium, as well as from the skin epithelium. To this end, HL-60 cells, TT cells, HeLa cells, CAL-27 cells and human primary epidermal keratinocytes (HPEK) were seeded into 96-well plates suitable for fluorescence assays (CORNING #3598) at following initial cell numbers: 1000 cells per well for HL-60; 9000 cells per well for TT; 2000 cells per well for HeLa, 2000 cells per well for CAL-27, 2000 cells per well for HPEK. The cells were treated with compounds at indicated final concentrations (diluted from the 1000× stock-solutions in DMSO to a final DMSO concentration of 0.1% v/v) or with the empty carrier DMSO at 0.1% v/v as control for 5 days. At day 5 after starting the treatments the cells were subjected to the alamarBlue® Proliferation Assay (Bio-Rad Serotec GmbH, BUF012B) according to the protocol of the manufacturer. The readout was taken with a multi-well plate-reader in the fluorescence mode with applying a filter for excitation at 560 nm (band width 10 nm) and for emission at 590 nm (band width 10 nm). Resveratrol (RES) treatment was included as control for growth inhibition.
The assays were performed in duplicate or more replicates of independent single experiments each containing a six-fold replicate for every condition. For every individual plate, the measured fluorescence intensity values of the conditions with compound treatment were normalized against the corresponding equally weighted arithmetic mean of the fluorescence intensity values of the six DMSO treated control wells in order to obtain the relative values to a baseline level of 1.0. The statistical calculations were performed in analogy to the luciferase assay as described above. To this end, two independent outlier analyses were performed according to the methods by Peirce and Chauvenet (Ross, Journal of Engineering Technology 2003, 1-12). Outliers confirmed by at least one of the methods were excluded from the calculations but not more than one value out of six per compound within a single experiment. The weighted arithmetic mean AVEw for each compound was calculated from the normalized values over all independent replicates of the single experiments comprising the six replicates each. The corresponding standard deviation for the weighted arithmetic mean was calculated according to the method described by Bronstein et al. (Bronstein, Semendjajew, Musiol, Mühlig, Taschenbuch der Mathematik, 5th edition 2001 (German), publisher: Verlag Harri Deutsch, Frankfurt am Main and Thun) and was combined with the Gauß′ error propagation associated with the performed calculation for the normalization. The resulting standard deviation is herein referred to as “combined standard deviation”.
HL-60 cells were cultivated according to the protocol of the provider in RPMI 1640 medium (Fisherscientific, #11554526) containing 10% fetal bovine serum (Fisherscientific, #15517589).
A compound is considered as a growth inhibitor of HL-60 cells, if—at a reference concentration of 20 μM—the weighted arithmetic mean of the normalized fluorescence intensity values after addition of the corresponding combined standard deviation amounts to 0.9 or lower, in particular to 0.8 or lower, 0.7 or lower, 0.6 or lower, 0.4 or lower, and 0.2 or lower, relative to the overall basis level of 1.0. The overall basis level was calculated as the weighted arithmetic mean of all normalized values from the DMSO control measurements in analogy to the calculations performed for the test-compounds. The corresponding combined standard deviation for the DMSO values amounts to less than 1·10^−2.

[2] = tested on: Notch signaling (hNotch1ΔE, human Notch1 receptor) in HeLa cells; test: Notch reporter assay (luciferase luminescence readout in transfected HeLa cells); format: cell-based; details: Homo sapiens, 20 hours, relative to DMSO baseline level of 1.0, read-out: AVEw, weighted arithmetic mean of double-normalized Notch-reporter luciferase luminescence values (Activity Range)
Protocol: An according Notch-reporter assay, i.e. a luciferase-based luminescence readout, was used here to quantify the ability of the claimed small molecules to augment Notch signaling in a cellular system. For this purpose, HeLa cells, obtainable from the American Type Culture Collection (ATCC) under the accession number ATCC-CCL-2, were transiently transfected for 24 hours using FuGENE® HD (Promega, #E2311) as transfection reagent with expression vectors of a membrane-tethered form of the constitutively active intracellular domain of the human Notch1 receptor (hNotch1ΔE) to activate the signaling cascade (BPS Bioscience, human analogue to Notch Pathway Reporter Kit #60509 component C), a Firefly luciferase being expressed under the control of a Notch-responsive promoter to monitor Notch signaling (BPS Bioscience, Notch Pathway Reporter Kit #60509, CSL luciferase reporter vector from component A not premixed with Renilla luciferase vector), and a Renilla luciferase being constitutively expressed in a Notch signaling independent manner to include a measure for the cell number per sample (Promega, pRL-SV40, #E2231). HeLa cells were cultivated according to the protocol of the provider in DMEM medium (Fisherscientific, #11584456) containing 10% fetal bovine serum (Fisherscientific, #15517589). The transfection was carried out in a 100 mm-culture dish (StarLab, #CC7682-3394) with cells being properly attached to the plate at a cell confluency of 80-90% in a total volume of 7 mL culture medium. Per dish to be transfected, a transfection mix was prepared by adding to 238 μL Opti-MEM (Fisherscientific, #10149832) 40 μL of the hNotch1ΔE expression vector (100 ng/μL), 80 μL of the CSL luciferase reporter vector (40 ng/μL), 4 μL of the pRL-SV40-Renilla luciferase vector (10 ng/μL), and in the last step 18.1 μL of FuGENE® HD. After addition of FuGENE® HD the transfection mix was let stand for 15 min at room temperature and hereafter equally distributed into the culture dish. Subsequently, i.e. after 24 hours of transfection, the transfected cells (10.000 cells per well) were incubated with the test-compounds at a final concentration of 10 μM (diluted from 10 mM stock-solutions in DMSO to a final DMSO concentration of 0.1% v/v) or with the empty carrier DMSO at 0.1% v/v as control for 20 hours in 96-well plates suitable for luminescence readouts (CORNING, #3610). Hereafter, the cells were lysed with 30 μL per well of Passive Lysis Buffer (Promega, #E194A, component of Dual-Luciferase® Reporter Assay System, #E1910) and the Firefly as well as Renilla luciferase values were measured with a luminescence reader with applying 15 μL per well each of the corresponding enzyme substrates needed to create the luminescence signals (Promega, Dual-Luciferase® Reporter Assay System, #E1910).
The suitability of the assays for monitoring Notch signaling was controlled by additionally including a generally accepted commercial Notch inhibitor, i.e. DAPT, as negative control, as well as the reported Notch enhancer resveratrol (RES) as positive control (Pinchot et al., Cancer 2011, 117, 1386-1398; Truong et al., Ann. Surg. Oncol. 2011, 18, 1506-1511; Yu et al., Mol. Cancer Ther. 2013, 12, 1276-1287). Both control compounds were likewise tested at 10 μM.
Per single experiment the measurement was performed in six replicates per compound. For every compound, this experiment was repeated in three or more independent replicates. The values of the Notch-reporter luciferase were normalized by division through the corresponding individual Notch-independent Renilla values in order to eliminate the impact of variation in the absolute cell-numbers in between the samples. For every individual plate, a second normalization was performed against the equally weighted arithmetic mean (here abbreviated as AVE) of the six associated Renilla-normalized DMSO-control values within a single experiment in order to obtain the relative values to a baseline level of 1.0. […]

SMILES | activity at 20 µM [1] [%] | fold induction at 10 µM [2]
CCC(C)(C)c1ccc(Oc2ccc(C(=O)OC)cc2)cc1 [Compound 030, Methyl 4-(4-(tert-Pentyl)phenoxy)benzoate] | 80 to 90 | ≥ 2
CN(C)C(=O)c1ccc(Oc2ccc(C3C[C@@H]4CC[C@H]3C4)cc2)nc1 (stereo partly drawn) [Compound 336, 6-(4-((1S,4R)-bicyclo[2.2.1]heptan-2-yl)phenoxy)-N,N-dimethylnicotinamide] | 60 to 70 | 1.4 to 1.7
Cc1ccc(Oc2ccc(C(=O)N(C)C)cc2)cc1 [Compound 215, N,N-dimethyl-4-(p-tolyloxy)benzamide] | 70 to 80 | 1.1 to 1.2
COC(=O)c1ccc(Oc2ccc(C3CCCCC3)cc2)cc1 [Compound 041, methyl 4-(4-(cyclohexyl)phenoxy)benzoate] | 70 to 80 | 1.4 to 1.7
CCOC(=O)c1ccc(Oc2ccc(C3CCCCC3)cc2)c(F)c1 [Compound 410, ethyl 4-(4-cyclohexylphenoxy)-3-fluorobenzoate] | 70 to 80 | 1.4 to 1.7
CCOC(=O)c1ccc(Oc2ccc(C3CC4CCC3CC4)cc2)cc1 (racemic) [Compound 067, ethyl 4-(4-((1s,4s)-bicyclo[2.2.2]octan-2-yl)phenoxy)benzoate] | 60 to 70 | 1.4 to 1.7
COC(=O)c1ccc(Oc2ccc(C3CC4CCC3CC4)cc2)cc1 (racemic) [Compound 044, (±)-Methyl 4-(4-(bicyclo[2.2.2]octan-2-yl)phenoxy)benzoate] | 40 to 60 | 1.3 to 1.4
COC(=O)c1ccc(Oc2ccc(C34CC5CC(CC(C5)C3)C4)cc2)cc1 [Compound 045, methyl 4-(4-((3r,5r,7r)-adamantan-1-yl)phenoxy)benzoate] | 40 to 60 | 1.7 to 2
CCOC(=O)c1ccc(Oc2ccc(C3CC4CCC3C4)cc2)nc1 (racemic) [Compound 133, ethyl 6-(4-((1S,4R)-bicyclo[2.2.1]heptan-2-yl)phenoxy)nicotinate] | 40 to 60 | 1.2 to 1.3
CCc1ccc(Oc2ccc(C(=O)N(C)C)cn2)cc1 [Compound 317, 6-(4-ethylphenoxy)-N,N-dimethylnicotinamide] | 80 to 90 | 1.4 to 1.7
CCCCc1ccc(Oc2ccc(C(=O)O)cn2)cc1 [Compound 072, 6-(4-butylphenoxy)nicotinic acid] | 80 to 90 | 1.4 to 1.7
CC(C)c1ccc(Oc2ccc(C(=O)N(C)C)cc2)cc1 [Compound 221, 4-(4-isopropylphenoxy)-N,N-dimethylbenzamide] | 40 to 60 | 1.1 to 1.2
Cc1ccc(Oc2ccc(C(=O)N(C)C)cn2)cc1 [Compound 316, N,N-dimethyl-6-(p-tolyloxy)nicotinamide] | 80 to 90 | 1.2 to 1.3
COC(=O)c1ccc(Oc2ccc(C3(C(F)(F)F)CC3)cc2)cc1 [Compound 712, Methyl 4-(4-(1-(trifluoromethyl)cyclopropyl)phenoxy)benzoate] | 80 to 90 | 1.1 to 1.2
CN(C)C(=O)c1ccc(Oc2ccc(C3CC4CCC3CC4)cc2)nc1 (centres unmarked) [Compound 337, 6-(4-((1s,4s)-bicyclo[2.2.2]octan-2-yl)phenoxy)-N,N-dimethylnicotinamide] | 80 to 90 | 1.4 to 1.7
CCCCCc1ccc(Oc2ccc(C(=O)O)cn2)cc1 [Compound 073, 6-(4-pentylphenoxy)nicotinic acid] | 80 to 90 | 1.4 to 1.7
CC(C)c1ccc(Oc2ccc(C(=O)N(C)C)cn2)cc1 [Compound 322, 6-(4-Isopropylphenoxy)-N,N-dimethylnicotinamide] | 70 to 80 | ≥ 2
CCCc1ccc(Oc2ccc(C(=O)N(C)C)cn2)cc1 [Compound 318, N,N-dimethyl-6-(4-propylphenoxy)nicotinamide] | 40 to 60 | 1.7 to 2
CCCCc1ccc(Oc2ccc(C(=O)N(C)C)cn2)cc1 [Compound 319, 6-(4-butylphenoxy)-N,N-dimethylnicotinamide] | 40 to 60 | 1.3 to 1.4
CN(C)C(=O)c1ccc(Oc2ccc(C(C)(C)C)cc2)cc1 [Compound 222, 4-(4-(tert-Butyl)phenoxy)-N,N-dimethylbenzamide] | 60 to 70 | 1.2 to 1.3
CCc1ccc(Oc2ccc(C(=O)N(C)C)cc2)cc1 [Compound 216, 4-(4-ethylphenoxy)-N,N-dimethylbenzamide] | 0 to 20 | 1.4 to 1.7
CCOC(=O)c1ccc(Oc2ccc(C(C)(C)CC)cc2)c(F)c1 [Compound 399, ethyl 3-fluoro-4-(4-(tert-pentyl)phenoxy)benzoate] | 80 to 90 | 1.1 to 1.2
